Measured values reported in article PMC7673538 (PLoS Biology, 2020).
Where “and” joins values, the source holds several entries; their conditions need not be identical. Equal entries are not always repeated. Where two headings read alike, the source gives them in different places.

How the values were obtained:
[1] = system: EV-A71; assay: microbe, parasite or virus in culture; format: cell-based, enterovirus A71
[2] = system: CV-B3; assay: microbe, parasite or virus in culture; format: cell-based, coxsackievirus B3
[3] = system: PV-1; assay: microbe, parasite or virus in culture; format: cell-based, poliovirus 1
[4] = system: representative EVs and RVs; format: cell-based
[5] = biological target: T1, human DAT (Homo sapiens, UniProt Q01959); format: cell-based; settings: for DAT, Mean (Figure 8B): Control = 100
T1 construct: expressed in transfected cells; host or cells: HEK293 (gift of Dr. Hoener, F. Hoffmann-La Roche)

[6] = system: CV-A24v; assay: microbe, parasite or virus in culture; format: cell-based, coxsackievirus A24v

T1 sequence (Q01959 whole entry): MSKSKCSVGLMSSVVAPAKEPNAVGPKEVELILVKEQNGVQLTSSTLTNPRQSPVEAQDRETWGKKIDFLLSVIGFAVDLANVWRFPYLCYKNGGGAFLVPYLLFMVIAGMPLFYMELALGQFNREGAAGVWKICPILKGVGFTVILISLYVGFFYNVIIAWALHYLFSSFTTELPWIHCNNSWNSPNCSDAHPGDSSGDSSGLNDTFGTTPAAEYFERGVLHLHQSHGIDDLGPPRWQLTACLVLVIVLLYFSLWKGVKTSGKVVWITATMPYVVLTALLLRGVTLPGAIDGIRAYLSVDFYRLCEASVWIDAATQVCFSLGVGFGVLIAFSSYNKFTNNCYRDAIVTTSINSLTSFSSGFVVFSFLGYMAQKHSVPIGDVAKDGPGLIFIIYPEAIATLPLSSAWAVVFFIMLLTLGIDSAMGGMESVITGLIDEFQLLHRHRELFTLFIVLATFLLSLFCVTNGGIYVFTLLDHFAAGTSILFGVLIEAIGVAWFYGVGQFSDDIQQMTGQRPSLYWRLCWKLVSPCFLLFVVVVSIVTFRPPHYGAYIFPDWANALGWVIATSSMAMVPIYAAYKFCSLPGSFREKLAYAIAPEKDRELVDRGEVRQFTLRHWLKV

## O=C(c1cc[nH]c1)N(Cc1ccc(F)cc1)c1ccccc1 [Compound 12b, N-(4-Fluorobenzyl)-N-phenyl-1H-pyrrole-3-carboxamide]
[1]; Concentration 0.0137 µM
  Figure 7 dose-response raw data, EV-A71 (triplicate values): 8.178 and 10.6023 and 11.4104
[1]; Concentration 0.0412 µM
  Figure 7 dose-response raw data, EV-A71 (triplicate values): 8.755 and 10.1405 and 13.8349
[1]; Concentration 0.1235 µM
  Figure 7 dose-response raw data, EV-A71 (triplicate values): 8.6396 and 9.794 and 10.7177
[1]; Concentration 0.3704 µM
  Figure 7 dose-response raw data, EV-A71 (triplicate values): 31.7298 and 16.0285 and 26.5345
[1]; Concentration 1.1111 µM
  Figure 7 dose-response raw data, EV-A71 (triplicate values): 89.9407 and 116.561 and 102.065
[1]; Concentration 3.3333 µM
  Figure 7 dose-response raw data, EV-A71 (triplicate values): 91.1267 and 117.088 and 97.8476
[1]; Concentration 11.1111 µM
  Figure 7 dose-response raw data, EV-A71 (triplicate values): 100.747 and 119.064 and 107.468
[1]; Concentration 33.3333 µM
  Figure 7 dose-response raw data, EV-A71 (triplicate values): 107.747 and 119.064 and 117.468
[1]; Concentration 100 µM
  Figure 7 dose-response raw data, EV-A71 (triplicate values): 110.747 and 119.064 and 107.468
[1]; Enterovirus A, EVA71, HeLa R19, read-out: Table in Figure 7A, EV-A71, AVERAGE
  EC50: 490 nM
[2]; Concentration 0.001 µM
  Figure 7 dose-response raw data, CV-B3 (triplicate values): 12.7273 and 16.4436 and 14.7652
[2]; Concentration 0.0046 µM
  Figure 7 dose-response raw data, CV-B3 (triplicate values): 88.2521 and 78.519 and 79.7121
[2]; Concentration 0.0137 µM
  Figure 7 dose-response raw data, CV-B3 (triplicate values): 101.732 and 101.506 and 105.007
[2]; Concentration 0.0412 µM
  Figure 7 dose-response raw data, CV-B3 (triplicate values): 102.861 and 101.167 and 103.426
[2]; Concentration 0.1235 µM
  Figure 7 dose-response raw data, CV-B3 (triplicate values): 99.9247 and 100.263 and 102.748
[2]; Concentration 0.3704 µM
  Figure 7 dose-response raw data, CV-B3 (triplicate values): 101.957 and 103.877 and 102.635
[2]; Concentration 1.1111 µM
  Figure 7 dose-response raw data, CV-B3 (triplicate values): 101.393 and 99.9247 and 103.426
[2]; Concentration 3.3333 µM
  Figure 7 dose-response raw data, CV-B3 (triplicate values): 102.974 and 100.151 and 104.555
[2]; Concentration 10 µM
  Figure 7 dose-response raw data, CV-B3 (triplicate values): 101.167 and 95.9721 and 104.668
[2]; Enterovirus B, CVB3, HeLa R19, read-out: Table in Figure 7A, CV-B3, AVERAGE
  EC50: 2.9 nM
[2]; Enterovirus B, CVB3, HeLa R19, read-out: Table in Figure 7A, CV-B3, exp1-exp3
  EC50: 2.98 nM
[2]; read-out: Table in Figure 7A, CV-B3, exp1-exp3
  EC50: 3.2 nM and 2.55 nM
[3]; Concentration 0.0046 µM
  Figure 7 dose-response raw data, PV-1 (triplicate values): 11.045 and 11.5939
[3]; Concentration 0.0137 µM
  Figure 7 dose-response raw data, PV-1 (triplicate values): 11.045 and 11.5939
[3]; Concentration 0.0412 µM
  Figure 7 dose-response raw data, PV-1 (triplicate values): 11.045 and 11.8683 and 12.5543
[3]; Concentration 0.1235 µM
  Figure 7 dose-response raw data, PV-1 (triplicate values): 9.9474 and 11.3195 and 12.0055
[3]; Concentration 0.3704 µM
  Figure 7 dose-response raw data, PV-1 (triplicate values): 13.3775 and 12.0055 and 11.7311
[3]; Concentration 1.1111 µM
  Figure 7 dose-response raw data, PV-1 (triplicate values): 20.2378 and 15.8472 and 16.3961
[3]; Concentration 3.3333 µM
  Figure 7 dose-response raw data, PV-1 (triplicate values): 109.849 and 103.263 and 104.772
[3]; Concentration 11.1111 µM
  Figure 7 dose-response raw data, PV-1 (triplicate values): 100.535 and 102.561 and 105.184
[3]; Concentration 33.3333 µM
  Figure 7 dose-response raw data, PV-1 (triplicate values): 94.7887 and 93.7377 and 106.219
[3]; Concentration 100 µM
  Figure 7 dose-response raw data, PV-1 (triplicate values): 94.2632 and 96.1025 and 105.824
[3]; Enterovirus C, HeLa R19, read-out: Table in Figure 7A, Polio, AVERAGE
  EC50: 1390 nM
[3]; Enterovirus C, HeLa R19, read-out: Table in Figure 7A, Polio, exp1-exp3
  EC50: 1760 nM
[3]; read-out: Table in Figure 7A, Polio, exp1-exp3
  EC50: 1420 nM and 990 nM
[4]
  spectrum of antiviral activity (in words): improved antiviral profile against all tested viruses
[5]; 1µM
  DAT, Mean (Figure 8B): 98.697
[5]; 1µM, Control = 100%
  DAT, Mean as % (Figure 8B): 103%
[5]; 100µM
  DAT, Mean (Figure 8B): 90.1253
[5]; HEK293 cells expressing human DAT, 1 μM or 100 μM
  inhibition of DAT function (in words): neither 12a, 19b, 19d, nor the combined compound 12b inhibited
[6]; Concentration 0.0046 µM
  Figure 7 dose-response raw data, CV-A24v (triplicate values): 11.045 and 11.5939
[6]; Concentration 0.0137 µM
  Figure 7 dose-response raw data, CV-A24v (triplicate values): 14.0988 and 16.3593 and 16.4783
[6]; Concentration 0.0412 µM
  Figure 7 dose-response raw data, CV-A24v (triplicate values): 14.0988 and 16.3593 and 16.4783
[6]; Concentration 0.1235 µM
  Figure 7 dose-response raw data, CV-A24v (triplicate values): 14.8126 and 12.909 and 19.2147
[6]; Concentration 0.3704 µM
  Figure 7 dose-response raw data, CV-A24v (triplicate values): 14.8126 and 13.6228 and 22.1892
[6]; Concentration 1.1111 µM
  Figure 7 dose-response raw data, CV-A24v (triplicate values): 14.8126 and 13.6228 and 22.1892
[6]; Concentration 3.3333 µM
  Figure 7 dose-response raw data, CV-A24v (triplicate values): 106.3 and 102.374 and 110.232
[6]; Concentration 11.1111 µM
  Figure 7 dose-response raw data, CV-A24v (triplicate values): 105.473 and 108.334 and 112.487
[6]; Concentration 33.3333 µM
  Figure 7 dose-response raw data, CV-A24v (triplicate values): 98.3206 and 97.0611 and 97.1756
[6]; Concentration 100 µM
  Figure 7 dose-response raw data, CV-A24v (triplicate values): 82.2926 and 86.3728 and 89.8506
[6]; Coxsackievirus, HeLa R19, read-out: Table in Figure 7A, CVA24v, AVERAGE
  EC50: 1340 nM
[6]; Coxsackievirus, HeLa R19, read-out: Table in Figure 7A, CVA24v, exp1-exp3
  EC50: 1110 nM
[6]; read-out: Table in Figure 7A, CVA24v, exp1-exp3
  EC50: 1230 nM and 1670 nM
